Like-named read-outs stand apart in the source and are kept apart here.
Columns and labels:
[1] = system: Aβ40 in conditioned medium of cells stably expressing Amyloid Precursor Protein (APP); experiment: In vitro BACE cell-based assay (Aβ40 in conditioned medium, sandwich ELISA);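 note: compounds added as a dilution series, secreted peptide quantified by europium time-resolved fluorescence readout, potency fitted from percent of control versus compound concentration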
[2] = molecular target: Beta Secretase enzyme (BACE) (Homo sapiens, UniProt P56817); experiment: In vitro enzymatic BACE FRET (fluorescence resonance energy transfer) assay; format: biochemical;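 note: fluorescence read after 1 h with 50 nM quenched peptide substrate spanning the BACE cleavage site, in pH 4.2 acetate buffer containing 10% DMSO and nonionic detergent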
[3] = Homo sapiens, HEK293, Table 1, HEK cells, read-out: HEK cell assay
[4] = Table 1, read-out: BACE1 FRET assay
[5] = Homo sapiens, HEK293, HEK cells, cell-based assay, read-out: HEK cell assay (IC50)
[6] = BACE enzyme FRET assay, read-out: BACE1 FRET assay (IC50)
[7] = BACE enzyme assay, read-out: BACE1 FRET assay (IC50)

Beta Secretase enzyme (BACE), sequence (P56817 46-501): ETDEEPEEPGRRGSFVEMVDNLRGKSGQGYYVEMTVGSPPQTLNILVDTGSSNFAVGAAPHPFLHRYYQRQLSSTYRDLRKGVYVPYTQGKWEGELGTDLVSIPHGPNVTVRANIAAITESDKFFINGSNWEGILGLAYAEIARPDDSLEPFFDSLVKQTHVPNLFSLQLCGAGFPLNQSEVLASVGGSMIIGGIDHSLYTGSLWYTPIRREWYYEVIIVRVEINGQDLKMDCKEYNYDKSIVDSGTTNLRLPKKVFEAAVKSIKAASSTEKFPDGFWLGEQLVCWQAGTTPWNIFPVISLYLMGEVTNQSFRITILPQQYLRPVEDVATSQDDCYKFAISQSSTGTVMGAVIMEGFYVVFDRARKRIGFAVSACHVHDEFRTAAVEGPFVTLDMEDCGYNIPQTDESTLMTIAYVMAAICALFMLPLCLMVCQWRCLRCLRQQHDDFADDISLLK

SMILES	IC50 [1, 5]	IC50 [2, 6]	IC50 [2, 7]	also measured
C[C@@H](F)C(=O)N[C@@H](Cc1ccc2c(c1)OCO2)[C@H](O)CN[C@H]1CC2(CCC2)Oc2ncc(CC(C)(C)C)cc21 [Example 484, (2R)-N-((1S,2R)-1-(1,3-benzodioxol-5-ylmethyl)-3-(((4′S)-6′-(2,2-dimethylpropyl)-3′,4′-dihydrospiro[cyclobutane-1,2′-pyrano[2,3-b]pyridin]-4′-yl)amino)-2-hydroxypropyl)-2-fluoropropanamide]	–	–	–	IC50 ([1]; Homo sapiens, HEK293, Table 2, HEK cells, read-out: HEK cell assay): 0.056 µM; IC50 ([2]; Table 2, read-out: BACE1 FRET assay): 0.029 µM
CO[C@H](C)C(=O)N[C@@H](Cc1ccc2c(c1)OCO2)[C@H](O)CN[C@H]1CC2(CCC2)Oc2ncc(CC(C)(C)C(F)(F)F)cc21 [compound 363]	–	–	–	IC50 [1, 3]: 0.16 µM; IC50 [2, 4]: 0.049 µM
CO[C@H](C)C(=O)N[C@@H](Cc1ccc2c(c1)OC(F)(F)O2)[C@H](O)CN[C@H]1CC2(CCC2)Oc2ncc(CC(C)(C)C)cc21 [compound 295]	1.33 µM	0.0969 µM	–	–
CO[C@H](C)C(=O)N[C@@H](Cc1ccc2c(c1)OCO2)[C@H](O)CN[C@H]1CC2(CCC2)Oc2ncc(CC(C)(C)CF)cc21 [compound 190]	0.0432 µM	0.0238 µM	–	–
CC(=O)N[C@@H](Cc1cc(F)cc(F)c1)[C@H](O)CN[C@H]1CC2(CCC2)Oc2ncc(CC(C)(C)C#N)cc21 [compound 91]	0.00646 µM	–	0.00442 µM	–
COCC(=O)N[C@@H](Cc1cc(F)cc(F)c1)[C@H](O)CN[C@H]1CC2(CCCC2)C(=O)c2ccc(CC(C)(C)C)cc21 [compound 89]	0.0586 µM	–	0.00495 µM	–
CC(=O)N[C@@H](Cc1cc(Cl)c2c(c1)OCO2)[C@H](O)CN[C@H]1CC2(CCC2)Oc2ncc(CC(C)(C)C)cc21 [compound 207]	0.0142 µM	0.00663 µM	–	–
COC(=O)N[C@@H](Cc1ccc2c(c1)OCO2)[C@H](O)CN[C@H]1CC2(CCC2)Oc2ncc(CC(C)(C)C)cc21 [compound 289]	0.196 µM	0.0775 µM	–	–
CO[C@H](C)C(=O)N[C@@H](Cc1ccc(Cl)c(F)c1)[C@H](O)CN[C@H]1CC2(CCC2)Oc2ncc(CC(C)(C)C(F)F)cc21 [compound 227]	0.0314 µM	0.0151 µM	–	–
COC(C)C(=O)NC(Cc1ccc2c(c1)OCO2)C(O)CNC1CC2(CC(O)C2)Oc2cnccc21 [compound 243, (2R)—N-((1S,2R)-1-(1,3-benzodioxol-5-ylmethyl)-2-hydroxy-3-(((1s,3S,4′S)-3-hydroxy-3′,4′-dihydrospiro[cyclobutane-1,2′-pyrano[2,3-c]pyridin]-4′-yl)amino)propyl)-2-(methyloxy)propanamide]	–	36.1 µM	–	IC50 ([1]; HEK cells, cell-based assay, read-out: HEK cell assay (IC50)): 3.33 µM
COCC(=O)N[C@@H](Cc1cccc(F)c1)[C@H](O)CN[C@H]1CC2(CCC2)Oc2cnc(CC(C)(C)F)cc21 [compound 252]	0.0538 µM	0.0236 µM	–	–
CC(=O)NC(Cc1ccc2c(c1)OCO2)C(O)CNC1CC2(CC(C)C2)Oc2ncc(CC(C)C)cc21 [compound 132, N-((1S,2R)-1-(1,3-benzodioxol-5-ylmethyl)-2-hydroxy-3-(((1s,3R,4′S)-3-methyl-6′-(2-methylpropyl)-3′,4′-dihydrospiro[cyclobutane-1,2′-pyrano[2,3-b]pyridin]-4′-yl)amino)propyl)acetamide]	0.066 µM	–	0.0252 µM	–
CC(C)(C)Cc1cnc2c(c1)[C@@H](NC[C@@H](O)[C@H](Cc1ccc(F)c(OC(F)(F)F)c1)NC(=O)C(F)(F)F)CC1(CCC1)O2 [compound 82]	0.523 µM	–	0.00283 µM	–
COCC(=O)N[C@@H](Cc1cccc(F)c1)[C@H](O)CN[C@H]1CC2(CC(F)(F)C2)Oc2ncc(CC(C)(F)F)cc21 [compound 280]	0.175 µM	0.0189 µM	–	–
COCC(=O)N[C@@H](Cc1ccc2c(c1)OCO2)[C@H](O)CN[C@H]1CC2(CCC2)Oc2ncc(CC(C)(C)F)cc21 [compound 285]	0.0738 µM	0.057 µM	–	–
COCC(=O)N[C@@H](Cc1ccc2c(c1)OCO2)[C@H](O)CN[C@H]1CC2(CCC2)Oc2cnc(C(F)(F)F)cc21 [compound 266]	1.25 µM	7.47 µM	–	–
CC(=O)C(=O)N[C@@H](Cc1ccc2c(c1)OCO2)[C@H](O)CN[C@H]1CC2(CCC2)Oc2ncc(CC(C)(C)C)cc21 [compound 307]	0.0683 µM	0.0313 µM	–	–
CC(C)C(=O)N[C@@H](Cc1ccc2c(c1)OCO2)[C@H](O)CN[C@H]1CC2(CCC2)Oc2ncc(CC(C)(C)C)cc21 [compound 881]	–	–	–	IC50 ([1]; Homo sapiens, HEK293, cell-based assay, HEK cells, IC50's in uM, read-out: HEK cell assay): 0.813 µM; IC50 ([2]; BACE enzyme assay, IC50's in uM, read-out: BACE1 FRET assay): 0.144 µM
COCCC(=O)N[C@@H](Cc1ccc2c(c1)OCO2)[C@H](O)CN[C@H]1CC2(CCC2)Oc2ncc(CC(C)(C)C)cc21 [compound 197]	0.0219 µM	0.0209 µM	–	–
CO[C@H](C)C(=O)N[C@@H](Cc1ccc(F)cc1)[C@H](O)CN[C@H]1CC2(CCC2)Oc2c1cc(CC(C)(C)C)nc2NCC(F)(F)F [compound 141, (2R)-N-((1S,2R)-3-(((4′S)-6′-(2,2-dimethylpropyl)-8′-((2,2,2-trifluoroethyl)amino)-3′,4′-dihydrospiro[cyclobutane-1,2′-pyrano[2,3-c]pyridin]-4′-yl)amino)-1-((4-fluorophenyl)methyl)-2-hydroxypropyl)-2-(methyloxy)propanamide]	2.84 µM	–	0.319 µM	–
COCC(=O)NC(Cc1ccc2c(c1)OCO2)C(O)CNC1CC2(CC(O)C2)Oc2ccc(CC(C)(C)C)cc21 [compound 267, N-((1S,2R)-1-(1,3-benzodioxol-5-ylmethyl)-3-(((2s,3′S,4S)-6-(2,2-dimethylpropyl)-3′-hydroxy-3,4-dihydrospiro[chromene-2,1′-cyclobutan]-4-yl)amino)-2-hydroxypropyl)-2-(methyloxy)acetamide]	0.0314 µM	0.0318 µM	–	–
COCC(=O)N[C@@H](Cc1ccnc(OCC(F)(F)F)c1)[C@H](O)CN[C@H]1CC2(CCC2)Oc2ncc(CC(C)(C)C)cc21 [compound 166]	0.00985 µM	–	0.0108 µM	–
CO[C@H](C)C(=O)N[C@@H](Cc1ccc2c(c1)OCO2)[C@H](O)CN[C@H]1CC2(CCC2)Oc2ncc(CC(C)C)cc21 [compound 335]	–	–	–	IC50 [1, 3]: 0.0765 µM; IC50 [2, 4]: 0.0383 µM
CC(C)(C)Cc1cnc2c(c1)[C@@H](NC[C@@H](O)[C@H](Cc1cccc(C#N)c1)NC(=O)[C@@H](O)C(F)(F)F)CC1(CCC1)O2 [compound 62]	0.00983 µM	–	0.00401 µM	–
COCC(=O)N[C@@H](Cc1ccc2c(c1)OCO2)[C@H](O)CN[C@H]1CC2(CC(F)(F)C2)Oc2ncc(CC(C)(C)C)cc21 [compound 52]	0.103 µM	–	0.042 µM	–
CC(=O)N[C@@H](Cc1ccc(F)c(OC(F)(F)F)c1)[C@H](O)CN[C@H]1CC2(CCC2)Oc2ncc(CC(C)(C)F)cc21 [compound 77]	0.016 µM	–	0.00488 µM	–
COCC(=O)N[C@@H](Cc1ccc(F)c(Cl)c1)[C@H](O)CN[C@H]1CC2(CCC2)Oc2ncc(CC(C)(C)C)cc21 [compound 351]	–	–	–	IC50 [1, 3]: 0.0123 µM; IC50 [2, 4]: 0.00275 µM
CC(C)(C)Cc1cnc2c(c1)[C@@H](NC[C@@H](O)[C@H](Cc1ccc3c(c1)OCO3)NC(=O)C(F)(F)Cl)CC1(CCC1)O2 [compound 99]	0.317 µM	–	0.0593 µM	–
COCC(=O)N[C@@H](Cc1ccc(F)cc1)[C@H](O)CN[C@H]1CC2(CCC2)Oc2c1cc(CC(C)(C)C)nc2C [compound 153]	0.153 µM	–	0.2 µM	–
COCC(=O)N[C@@H](Cc1cccc(F)c1)[C@H](O)CN[C@H]1CC2(CCC2)Oc2ncc(C[C@H](C)C(F)(F)F)cc21 [compound 325]	–	–	–	IC50 [1, 3]: 0.0137 µM; IC50 [2, 4]: 0.00371 µM

Reference: patent publication US8163909B2, “Substituted hydroxyethyl amine compounds as beta-secretase modulators and methods of use” (Amgen Inc., priority 2007, dated 2012)
